Results taken from patent US7910723B2, “IG20 splice variants therapeutics for cancer” (The Board of Trustees of the University of Illinois, priority 2006, dated 2011).

Columns and labels:
[1] = tested on: DR4; assay: Association of exogenous MADD with DR4 in HEK293 cells (immunoprecipitation); format: cell-based
Description: (A) Phosphorylation status of MADD could influence its binding to DR4. HEK293 cells were transfected with wtMADD or MADD mutants. 36 h after transfection, the cells were harvested for immunoprecipitation using an anti-DR4 antibody followed by immunoblotting using an anti-YFP antibody to detect exogenous MADD. The membrane was reprobed with an anti-DR4 antibody to show the protein loading. (B) PI3K can influence the association of exogenous MADD with DR4. HEK293 cells were transfected with wtMADD. Twenty four hours after transfection, the cells were serum starved for 20 h. Further, they were treated with LY (10 μM) for 1 h, IGF-1 (150 ng/ml) for 20 minutes. Immunoprecipitation using an anti-DR4 antibody was followed by immunoblotting using anti-YFP or anti-DR4 antibody. (C) Akt can influence exogenous MADD association with DR4. HEK293 cells were co-transfected with wtMADD along with DN-Akt or the empty vector pcDNA3.1 (pcDNA). Thirty six hours after transfection, the cells were harvested for immunoprecipitation using anti-DR4 antibody followed by immunoblotting with an anti-YFP or an anti-DR4 antibody. (D) PI3K can influence the association of endogenous MADD with DR4. HeLa cells were serum starved for 20 h, then treated with LY (10 μM) for 1 h, IGF-1 (150 ng/ml) for 20 minutes. Immunoprecipitation using an anti-DR4 antibody was followed by immunoblotting with an anti-MADD or an anti-DR4 antibody. (E) Akt can influence the association of endogenous MADD with DR4. HeLa cells were transfected with DN-Akt or pcDNA. Thirty six hours after transfection, the cells were collected for immunoprecipitation using an anti-DR4 antibody followed by immunoblotting with an anti-MADD antibody.
MADD can bind to DR4 and thereby block the activation of the extrinsic apoptotic pathway. […] Stimulation of PI3K by IGF-1 increased, while inhibition by LY reduced, the association between wtMADD and DR4 (FIG. 15B). […] This interaction was reduced in the presence of LY (FIG. 15D) or DN-Akt (FIG. 15E).
Immunoprecipitation. Immunoprecipitations were performed using standard procedures. The samples were precleared with 10% (vol/vol) Protein-A agarose (Roche) for 1 h on a rocking platform. Specific antibodies were added and rocked for 1 h. Immunoprecipitates were captured by incubating with 10% (vol/vol) Protein-A agarose for an hour. The agarose beads were spun down and washed three times with NET/NP40 buffer (150 mM NaCl, 2 mM EDTA, 50 mM Tris-HCl pH 7.5, 0.1% NP-40). The antigens were released and denatured by adding SDS sample buffer. Immunoblots were prepared and analysed as described above.

[2] = tested on: HEK293 cells; assay: Cell death of HEK293 cells transfected with MADD constructs, Trypan Blue exclusion; format: cell-based; conditions: HEK293, 48 h after transfection
Description: (A) HEK293 cells were transfected with various MADD constructs. Cell death was determined 48 h after transfection by Trypan Blue exclusion. *p<0.05 vs control. (B) Apoptosis analyzed by Cell Death Detection ELISA. *p<0.05 vs control. (C) Phosphorylatable but not the nonphosphorylatable MADD could rescue cell death upon endogenous MADD knockdown. HeLa cells were infected with the lentivirus harboring MADD shRNAi (RNAi) or its scrambled form (Scrambled RNAi). 24 h after infection, cells were transfected with the constructs of wtMADD-R or MADD3A-R. 48 h after transfection, cell death was determined by Trypan Blue exclusion. *p<0.05 vs RNAi alone. (D) Inhibition of Akt or PI3K could abolish the ability of wtMADD-R to rescue cell death upon endogenous MADD knockdown. HeLa cells were infected with the lentivirus harboring MADD shRNA (RNAi). 24 h after infection, cells were infected with the adenovirus harboring DN-Akt, and transfected with wtMADD-R. LY (10 μM) was added 6 h after transfection. 48 h after transfection, cell death was determined by Trypan Blue exclusion. Data are expressed as the mean±SEM of three independent experiments.
To see whether phosphorylation is required for the prosurvival function of MADD, WT and mutant MADD were tested. […] Since knockdown of endogenous MADD can cause cell death, it was tested whether the wtMADD or MADD3A could rescue this cell death. Only the shRNA resistant wtMADD (wtMADD-R) and not the MADD3A-R could rescue cell death upon endogenous MADD knockdown (FIG. 14C), which was abrogated in the presence either LY or DN-Akt (FIG. 14D). Taken together, the prosurvival function of MADD is dependent upon its phosphorylation by Akt.
Cell culture and viability assay. HEK293, HeLa and PA-1 cells were cultured. Cell death was determined by Trypan Blue exclusion and the numbers of Trypan Blue-positive and -negative cells were counted using a haemocytometer.

[3] = target: Akt (Homo sapiens, UniProt P31749); assay: Phosphorylation of MADD in vitro by Akt (kinase assay); format: biochemical; conditions: GST-tagged recombinant MADD, rAkt, 1 h at 30° C.
Sequence of Akt (P31749 whole entry): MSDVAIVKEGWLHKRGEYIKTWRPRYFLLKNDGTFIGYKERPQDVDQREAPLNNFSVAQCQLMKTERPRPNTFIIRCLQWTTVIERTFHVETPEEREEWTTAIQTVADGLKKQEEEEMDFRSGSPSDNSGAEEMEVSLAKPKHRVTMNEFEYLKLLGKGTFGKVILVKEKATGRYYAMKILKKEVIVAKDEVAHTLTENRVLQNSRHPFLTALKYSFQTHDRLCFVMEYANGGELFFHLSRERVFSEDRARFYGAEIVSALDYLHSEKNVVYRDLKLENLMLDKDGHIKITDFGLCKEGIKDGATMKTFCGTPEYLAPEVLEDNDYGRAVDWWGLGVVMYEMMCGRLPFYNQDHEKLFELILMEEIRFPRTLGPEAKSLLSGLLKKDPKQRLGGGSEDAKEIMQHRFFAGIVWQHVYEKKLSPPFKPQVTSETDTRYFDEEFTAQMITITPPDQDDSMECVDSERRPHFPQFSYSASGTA
Description: (A) In vitro phosphorylation of rMADD by Akt. GST-wtMADD or -MADD mutants were expressed in bacteria, purified, and then incubated with rAkt and γ[^32P] ATP. After 1 h incubation at 30° C., the products were resolved on SDS-PAGE and ^32P-labeled proteins were visualized by autoradiography. (B) MADD is labeled by [^32P]orthophosphate in vivo. HEK293 cells were transfected with wtMADD or MADD mutant constructs. Twenty-four hours after transfection cells were incubated with 0.3 mCi/ml [32P]orthophosphate for 6 h. MADD was immunoprecipitated with an anti-YFP antibody. The precipitated MADD was separated by SDS-PAGE, transferred to a nitrocellulose membrane, and subjected to autoradiography. Loaded MADD was visualized by staining the same membrane with an anti-YFP antibody. (C) HEK293 cells were transfected with cDNAs for wtMADD or MADD mutants and. 36 h later the cells were harvested for immunoblotting using the anti-phospho-S-70, -T-173 or -T-1041 antibodies. An anti-YFP antibody was used to detect exogenous MADD. (D) HEK293 cells were transfected with wtMADD and 24 hours later cells were serum starved for 20 h. Subsequently, they were treated with LY (10 μM) for 1 h and/or IGF-1 (150 ng/ml) for 20 minutes. The cell lysates were immunoblotted and probed with anti phospho-specific antibodies or an anti-YFP antibody. (E) HEK293 cells were co-transfected with wtMADD along with dominant negative Akt (DN-Akt) or the empty vector pcDNA3.1 (pcDNA). Immunoblots were probed with the anti phospho-specific antibodies or an anti-YFP antibody. (F) HeLa cells were serum starved for 20 h, treated with LY (10 μM) for 1 h, IGF-1 (150 ng/ml) for 20 minutes. Immunoblot was probed with the anti phospho-specific antibodies or an anti-MADD antibody.
To test whether MADD is a substrate of Akt, an in vitro assay was employed to test whether Akt could directly phosphorylate MADD. […] It was tested whether MADD could be phosphorylated in vivo. […] Second, three antibodies that specifically reacted with phosphorylated S70 (anti-phospho S70), T173 (anti-phospho T173) or T1041 (anti-phospho T1041) were raised, respectively. The phosphopeptides, CRQRRMpSLRDDTS (SEQ ID NO: 7) (S-70), GSRSRNSpTLTSL (SEQ ID NO: 8) (T-173), and KRKRSPpTESVNTP (SEQ ID NO: 9) (T-1041) were used to immunize the rabbits. Antisera were depleted of antibodies that recognize non-phosphorylated MADD by negatively selecting the antibodies using an identical non-phosphorylated peptide affinity column. Antibodies in the flow through were tested to ensure that they specifically bind only to the corresponding phosphorylated peptide and not the non-phosphorylated couterpart. […]

[4] = tested on: ERK1/2; assay: TNF-α induced ERK phosphorylation in HeLa cells (immunoblot); format: cell-based; conditions: TNF-α 50 ng/mL, untransduced
Description: (A) Time-kinetics of TNF-α induced ERK activation. HeLa cells (3×10^6 per 100 mm dish) were serum starved for 6 h and were either left untreated or treated with TNF-α (50 ng/mL) for different time periods as indicated. Cell lysates were analyzed for phosphorylated ERK or total ERK by immunoblot. (B) Down-modulation of endogenous IG20-SVs in HeLa cells. One microgram of total RNA obtained from HeLa cells 48 h post-transduction was used for reverse-transcription-polymerase chain reaction. The products were separated on a 2% agarose gel. Amplification of all four IG20-SVs was done using F2-B2 primers. […] HeLa cells (3×10^6 per 100 mm dish) were either untransduced or transduced with different lentiviruses expressing SCR, Mid and 13L ShRNA for different time periods as indicated. At the end of each time period, the cells were serum starved for 6 h and were either left untreated or treated with TNF-α (50 ng/mL) for 15 min. Cell lysates were analyzed for phosphorylated ERK or total ERK by immunoblot. The data shown is representative of at least 3 independent experiments.
(A) HeLa cells (3×10^6 per 100 mm dish) were transduced with different lentiviruses expressing SCR, Mid and 16E ShRNA for 48 h. The cells were then serum starved for 6 h and were either left untreated or treated with TNF-α (50 ng/mL) for 15 min. Cell lysates were analyzed for phosphorylated ERK or total ERK by immunoblot. (B) PA-1 cells (5×10^6 per 100 mm dish) were transduced with different lentiviruses expressing SCR, Mid and 13L ShRNA for 48 h. The cells were then serum starved for 6 h and were either left unstimulated or stimulated with TNF-α (50 ng/mL) for 15 min. Cell lysates were analyzed for phosphorylated ERK or total ERK by immunoblot. […] Cell lysates were analyzed for phosphorylated ERK or total ERK by immunoblot. […]
To gain insight into the time kinetics of TNF-α induced ERK phosphorylation, HeLa cells were treated with TNF-α (50 ng/mL) for different time periods. […] Down-modulation of IG20 transcripts upon treatment with different ShRNA expressing lentiviruses was monitored by RT-PCR. […]

Substance | Association of exogenous MADD with DR4 [1] | Cell death upon enforced expression [2] | In vitro phosphorylation by Akt [3] | Time of maximum ERK phosphorylation [4] [min]
MADD3A: MADD mutant, all three residues (S70, T173, T1041) converted to alanine | almost non-existant | significant cell death | – | –
MADD70A: MADD mutant S70A | – | minimal effects on cell death | reduced or absent | –
MADD173A: MADD mutant T173A | – | minimal effects on cell death | reduced or absent | –
MADD1041A: MADD mutant T1041A | – | minimal effects on cell death | reduced or absent | –
TNF-α [reference compound] | – | – | – | 15
wtMADD: recombinant wild-type MADD | can associate with DR4 | could not induce cell death | phosphorylated by Akt | –
